According to ChEMBL document CHEMBL1153676, “Muscarinic receptor probes based on amine congeners of pirenzepine and telenzepine” (Bioorg Med Chem Lett, 1992):

What was measured:
[1] = molecular target: T1, Muscarinic acetylcholine receptor M1 (Rattus norvegicus) (UniProt P08482); experiment: Percent reduction in specific binding of 0.5 nM [3H]N-methylscopolamine (NMS) to rat forebrain membranes following a 30 min pre-incubation at concentration of 0.5 uM; assay type: cell membranes; conditions: Membrane
T1 sequence (whole entry): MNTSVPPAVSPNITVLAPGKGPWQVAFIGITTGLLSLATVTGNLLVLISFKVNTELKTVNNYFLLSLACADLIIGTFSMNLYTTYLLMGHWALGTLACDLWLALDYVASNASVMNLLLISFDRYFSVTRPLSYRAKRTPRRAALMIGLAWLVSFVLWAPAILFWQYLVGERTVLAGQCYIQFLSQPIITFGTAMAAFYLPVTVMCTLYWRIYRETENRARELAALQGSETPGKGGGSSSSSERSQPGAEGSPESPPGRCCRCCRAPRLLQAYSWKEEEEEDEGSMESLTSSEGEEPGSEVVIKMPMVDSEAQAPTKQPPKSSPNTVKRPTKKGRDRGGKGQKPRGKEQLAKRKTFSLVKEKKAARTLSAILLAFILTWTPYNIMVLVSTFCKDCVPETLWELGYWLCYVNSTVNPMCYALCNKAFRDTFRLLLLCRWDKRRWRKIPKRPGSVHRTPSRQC

[2] = molecular target: T2, Muscarinic acetylcholine receptor M1 (Rattus norvegicus, UniProt P08482); experiment: Inhibitory concentration was evaluated for irreversible inhibition at rat forebrain muscarinic receptor
T2 sequence (P08482 whole entry): T1 sequence (whole entry)

[3] = molecular target: T3, Muscarinic acetylcholine receptor M2 (Rattus norvegicus, UniProt P10980); experiment: Inhibitory constant by the inhibition of [3H]N-methylscopolamine (NMS) binding to Muscarinic acetylcholine receptor M2 of rat heart
T3 sequence (P10980 whole entry): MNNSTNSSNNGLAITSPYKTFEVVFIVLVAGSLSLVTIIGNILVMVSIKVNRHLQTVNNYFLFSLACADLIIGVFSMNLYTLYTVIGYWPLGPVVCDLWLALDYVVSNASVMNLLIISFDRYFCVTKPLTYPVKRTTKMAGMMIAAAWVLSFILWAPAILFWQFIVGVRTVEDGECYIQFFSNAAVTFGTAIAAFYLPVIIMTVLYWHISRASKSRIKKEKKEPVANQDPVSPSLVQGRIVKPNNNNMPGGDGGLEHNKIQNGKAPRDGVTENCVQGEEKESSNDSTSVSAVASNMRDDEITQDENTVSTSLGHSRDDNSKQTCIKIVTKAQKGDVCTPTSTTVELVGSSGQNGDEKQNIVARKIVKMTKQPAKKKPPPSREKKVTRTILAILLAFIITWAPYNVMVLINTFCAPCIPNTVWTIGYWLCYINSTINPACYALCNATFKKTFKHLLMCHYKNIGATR

| Reduction [1] [%] | Ki [3] [nM] | SMILES | IC50 [2] [nM] |
| --- | --- | --- | --- |
| 48.7 |  | O=C1Nc2cccnc2N(C(=O)CN2CCN(CCCCCCCCCNC(=S)Nc3cccc(N=C=S)c3)CC2)c2ccccc21 |  |
| 51.1 |  | O=C1Nc2cccnc2N(C(=O)CN2CCN(CCCCCCCCNC(=S)Nc3cccc(N=C=S)c3)CC2)c2ccccc21 |  |
|  | 3.7 | Cc1scc2c1N(C(=O)CN1CCN(CCCCCCCCCCN)CC1)c1ccccc1NC2=O |  |

| SMILES | Reduction [1] [%] | Ki [3] [nM] | IC50 [2] [nM] |
| --- | --- | --- | --- |
| O=C1Nc2cccnc2N(C(=O)CN2CCN(CCCCCCCCCCNC(=S)Nc3cccc(N=C=S)c3)CC2)c2ccccc21 | 76 |  | 0.15 |
